Measured values reported in patent US20090005435A1, “Novel Compounds, Pharmaceutical Compositions Containing Same, and Methods of Use for Same” (priority 2004, published 2009).
pIC50: −log10 of the molar value. In brackets after ≈: the same amount, converted by molar mass. Several values for one entry are separate records, joined by “and”; a condition that tells them apart may be missing. Equal entries are not always repeated.

Tests used:
[1] = tested on: (O); experiment: XTT cytotoxicity assay (O); assay type: cell-based; conditions: read-out: XTT (IC50) (O)
Experimental: (§1) The XTT assay is a non-radioactive alternative for the [^51Cr] release cytotoxicity assay. XTT is a tetrazolium salt that is reduced to a formazan dye only by metabolically active, viable cells. The reduction of XTT is measured spectrophotometrically as OD490-OD650.
(§2) After 72 hours of incubation, cells are incubated for 4 hours with the XTT reagent as per manufacturer's instructions (Cell Proliferation Kit II (XTT) Roche). Plates are read at OD490 and OD650 on a Molecular Devices SpectraMax Plus Spectrophotometer. Three wells containing the XTT reagent without cells serve as the plate blank. XTT data are reported as OD490-OD650. Averages and standard error of the mean are computed using SOFTmax Pro software ([…]).
(§3) The IC50 for the compounds is defined as the concentration of drug leading to a 50% reduction in OD490-OD650 compared to controls. The OD490-OD650 are computed by the SOFTmax PRO software (Molecular Devices) for each compound concentration. IC50 is calculated by linear regression, plotting the FAS activity as percent of control versus drug concentrations. Linear regression, best-fit line, r^2, and 95% confidence intervals are determined using Prism Version 3.0 (Graph Pad Software).

[2] = tested on: MCF-7 human breast cancer cells; experiment: XTT cytotoxicity assay (M); assay type: cell-based; conditions: MCF7
Experimental: as §1
To measure the cytotoxicity of specific compounds against cancer cells, 9×10^3 MCF-7 human breast cancer cells, obtained from the American Type Culture Collection are plated per well in 96 well plates in DMEM medium with 10% fetal bovine serum, insulin, penicillin, and streptomycin. Following overnight culture at 37° C. and 5% CO2, the compounds to be tested, dissolved in DMSO, are added to the wells in 1 μl volume at the following concentrations: 80, 40, 20, 10, 5, 2.5, 1.25, and 0.625 μg/ml in triplicate. Additional concentrations are tested if required. 1 μl of DMSO is added to triplicate wells are the vehicle control. C75 is run at 40, 20, […], and 5 μg/ml in triplicate as positive controls.
as §2, §3

[3] = tested on: fatty acid oxidation; experiment: β-Oxidation assay, isolation of acid soluble products; assay type: cell-based; design: Beta Oxidation: unit not given here; conditions: for FAO MAx: maximal fatty acid oxidation, at the concentration given under E32
Experimental: β-Oxidation Assay—Isolation of Acid Soluble Products A 24 well plate with 1 ml per well was prepared with 2.5×10^5 cells/well. The cells were incubated O/N. The next day, a solubilized palmitate solution was prepared. 50 μls of (1-^14C) Palmitic acid was added to a 2 ml centrifuge tube and dried under nitrogen gas. 2 mls of α-CD (α-Cyclodextran)-10 mg/ml in 10 mM Tris were added. This solution was incubated in a 37° C. water bath for 30 minutes. A hot mix was prepared by adding 25 μls of this solution to 2.5 μls of 200 μM Carnitine and 222.5 μls of serum free medium that is used for cells. The cells were then treated with the test compound in triplicate, and incubated at 37° C. for 60 minutes. The medium was removed and 250 μls of the hot mix were added. The test compound was added again, and further incubated at 37° C. for 60 minutes. The reaction was stopped with 50 μls of 2.6 N HClO4. The contents of the plate were transferred to a 1.5 ml centrifuge tube, and 50 μls of 4N KOH were then added, and the tube incubated in a 60° C. water bath for 30 min. Sodium acetate (1M, 75 μls) and sulfuric acid (3N, 50 μls) were added to the solution and vortexed. The tube was spun for 7 minutes at 1000 rpm at room temperature. A portion (225 μls) was removed, and the following were added (vortex after each addition, twice at the end): 938 μls of 1:1 Chloroform:Methanol; 468 μls of Chloroform; 281 μls distilled Water. The tubes were spun at 1000 rpm for 5 minutes. The upper phase was removed into a large glass scintillation vial and 5 mls of Budget solvent (scintillation liquid) was added. The tubes were well vortexed. Finally, C14 was counted for one minute.

[4] = target: T1, purified human FAS (Homo sapiens, UniProt P49327); experiment: FAS enzymatic activity (malonyl-CoA dependent NADPH oxidation); assay type: biochemical; conditions: (SB)
T1 construct: Human FAS was purified from cultured ZR-75-1 human breast cancer cells; endogenous in cells; host or cells: ZR-75-1 human breast cancer cells (ATCC); enzyme purified by PEG precipitation and Mono Q chromatography
T1 sequence (P49327 whole entry): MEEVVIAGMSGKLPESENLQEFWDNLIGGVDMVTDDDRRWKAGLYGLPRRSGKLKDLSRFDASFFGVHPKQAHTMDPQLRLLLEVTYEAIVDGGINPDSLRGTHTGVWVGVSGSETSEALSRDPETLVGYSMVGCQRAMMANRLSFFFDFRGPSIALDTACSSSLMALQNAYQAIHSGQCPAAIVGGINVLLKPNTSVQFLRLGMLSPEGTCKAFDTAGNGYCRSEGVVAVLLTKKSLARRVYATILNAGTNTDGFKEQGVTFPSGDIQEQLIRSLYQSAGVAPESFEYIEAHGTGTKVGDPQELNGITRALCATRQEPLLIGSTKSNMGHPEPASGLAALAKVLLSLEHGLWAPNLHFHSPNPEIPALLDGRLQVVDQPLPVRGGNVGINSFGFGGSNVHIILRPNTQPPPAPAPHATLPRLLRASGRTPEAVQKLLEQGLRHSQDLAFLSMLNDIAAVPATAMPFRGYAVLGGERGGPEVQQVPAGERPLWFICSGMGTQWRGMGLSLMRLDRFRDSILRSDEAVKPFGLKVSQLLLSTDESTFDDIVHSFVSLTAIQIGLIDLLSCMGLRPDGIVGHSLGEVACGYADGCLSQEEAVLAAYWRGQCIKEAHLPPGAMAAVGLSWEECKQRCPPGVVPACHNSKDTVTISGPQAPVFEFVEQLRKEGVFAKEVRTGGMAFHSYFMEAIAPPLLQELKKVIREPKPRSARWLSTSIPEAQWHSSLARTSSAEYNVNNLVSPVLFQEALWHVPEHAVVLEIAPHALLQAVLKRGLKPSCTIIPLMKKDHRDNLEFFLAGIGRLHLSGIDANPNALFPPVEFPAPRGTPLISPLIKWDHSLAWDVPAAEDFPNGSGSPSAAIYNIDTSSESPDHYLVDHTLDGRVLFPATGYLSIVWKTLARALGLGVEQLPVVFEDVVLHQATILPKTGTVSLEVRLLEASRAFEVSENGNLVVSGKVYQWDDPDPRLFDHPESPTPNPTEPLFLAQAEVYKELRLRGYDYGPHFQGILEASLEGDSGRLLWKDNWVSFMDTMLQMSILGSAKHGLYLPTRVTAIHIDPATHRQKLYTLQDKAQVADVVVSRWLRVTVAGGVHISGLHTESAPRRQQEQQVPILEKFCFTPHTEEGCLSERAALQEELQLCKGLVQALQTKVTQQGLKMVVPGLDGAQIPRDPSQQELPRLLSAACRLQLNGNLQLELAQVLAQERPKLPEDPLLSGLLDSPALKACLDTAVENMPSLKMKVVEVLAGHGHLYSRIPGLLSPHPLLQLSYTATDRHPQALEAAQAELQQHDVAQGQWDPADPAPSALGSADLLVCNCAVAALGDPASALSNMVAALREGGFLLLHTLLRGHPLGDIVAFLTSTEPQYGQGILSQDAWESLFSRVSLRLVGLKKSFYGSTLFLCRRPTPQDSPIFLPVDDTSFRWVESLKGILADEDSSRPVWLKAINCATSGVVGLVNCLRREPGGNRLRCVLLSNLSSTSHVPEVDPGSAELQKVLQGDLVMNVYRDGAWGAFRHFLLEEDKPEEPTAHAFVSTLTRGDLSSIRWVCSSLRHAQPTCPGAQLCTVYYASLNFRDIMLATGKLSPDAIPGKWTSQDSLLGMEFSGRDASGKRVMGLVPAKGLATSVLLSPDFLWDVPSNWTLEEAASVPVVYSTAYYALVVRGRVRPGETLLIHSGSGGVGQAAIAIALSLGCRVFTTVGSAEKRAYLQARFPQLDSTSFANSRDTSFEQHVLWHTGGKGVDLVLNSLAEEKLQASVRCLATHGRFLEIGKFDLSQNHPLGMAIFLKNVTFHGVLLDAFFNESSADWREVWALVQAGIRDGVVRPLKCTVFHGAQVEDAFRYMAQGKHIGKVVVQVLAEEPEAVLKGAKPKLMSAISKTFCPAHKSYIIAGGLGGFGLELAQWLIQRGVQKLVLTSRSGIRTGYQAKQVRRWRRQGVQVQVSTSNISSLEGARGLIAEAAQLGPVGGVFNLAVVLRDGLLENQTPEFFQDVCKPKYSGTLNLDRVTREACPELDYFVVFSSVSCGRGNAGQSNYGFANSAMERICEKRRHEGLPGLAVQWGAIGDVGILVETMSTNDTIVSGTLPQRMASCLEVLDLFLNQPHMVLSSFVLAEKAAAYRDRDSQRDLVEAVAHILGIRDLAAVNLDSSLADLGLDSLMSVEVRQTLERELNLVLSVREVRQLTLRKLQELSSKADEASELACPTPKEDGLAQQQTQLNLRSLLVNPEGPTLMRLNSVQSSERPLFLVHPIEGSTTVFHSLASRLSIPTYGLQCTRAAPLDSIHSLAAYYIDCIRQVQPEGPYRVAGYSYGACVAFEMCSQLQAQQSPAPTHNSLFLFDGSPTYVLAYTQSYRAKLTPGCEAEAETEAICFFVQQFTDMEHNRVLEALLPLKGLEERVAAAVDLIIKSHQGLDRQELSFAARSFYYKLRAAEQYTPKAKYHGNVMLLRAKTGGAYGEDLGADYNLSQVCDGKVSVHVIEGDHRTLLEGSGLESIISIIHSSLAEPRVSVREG
Experimental: Purification of FAS from ZR-75-1 Human Breast Cancer Cells.
Human FAS was purified from cultured ZR-75-1 human breast cancer cells obtained from the American Type Culture Collection. The procedure, adapted from Linn et al., 1981, and Kuhajda et al., 1994, utilizes hypotonic lysis, successive polyethyleneglycol (PEG) precipitations, and anion exchange chromatography. ZR-75-1 cells are cultured at 37° C. with 5% CO2 in RPMI culture medium with 10% fetal bovine serum, penicillin and streptomycin.
Ten T150 flasks of confluent cells are lysed with 1.5 ml lysis buffer (20 mM Tris-HCl, pH 7.5, 1 mM EDTA, 0.1 mM phenylmethanesulfonyl fluoride (PMSF), 0.1% Igepal CA-630) and dounce homogenized on ice for 20 strokes. The lysate is centrifuged in JA-20 rotor (Beckman) at 20,000 rpm for 30 minutes at 4° C. and the supernatant is brought to 42 ml with lysis buffer. A solution of 50% PEG 8000 in lysis buffer is added slowly to the supernatant to a final concentration of 7.5%. After rocking for 60 minutes at 4° C., the solution is centrifuged in JA-20 rotor (Beckman) at 15,000 rpm for 30 minutes at 4° C. Solid PEG 8000 is then added to the supernatant to a final concentration of 15%. After the rocking and centrifugation is repeated as above, the pellet is resuspended overnight at 4° C. in 10 ml of Buffer A (20 mM K2HPO4, pH 7.4). After […] filtration, the protein solution is applied to a Mono Q 5/5 anion exchange column (Pharmacia). The column is washed for 15 minutes with buffer A at 1 ml/minute, and bound material is eluted with a linear 60-ml gradient over 60 minutes to 1 M KCl. FAS (MW˜270 kD) typically elutes at 0.25 M KCl in three 0.5 ml fractions identified using 4-15% SDS-PAGE with Coomassie G250 stain (Bio-Rad). FAS protein concentration is determined using the Coomassie Plus Protein Assay Reagent (Pierce) according to manufacturer's specifications using BSA as a standard. This procedure results in substantially pure preparations of FAS (>95%) as judged by Coomassie-stained gels.
Measurement of FAS Enzymatic Activity and Determination of the IC50 of the Compounds
FAS activity is measured by monitoring the malonyl-CoA dependent oxidation of NADPH spectrophotometrically at OD340 in 96-well plates (Dils et al and Arslanian et al, 1975). Each well contains 2 μg purified FAS, 100 mM K2HPO4, pH 6.5, 1 mM dithiothreitol (Sigma), and 187.5 μM β-NADPH (Sigma). Stock solutions of inhibitors are prepared in DMSO at 2, 1, and 0.5 mg/ml resulting in final concentrations of 20, 10, and 5 μg/ml when 1 μl of stock is added per well. For each experiment, cerulenin (Sigma) is run as a positive control along with DMSO controls, inhibitors, and blanks (no FAS enzyme) all in duplicate.
The assay is performed on a Molecular Devices SpectraMax Plus Spectrophotometer. The plate containing FAS, buffers, inhibitors, and controls are placed in the spectrophotometer heated to 37° C. Using the kinetic protocol, the wells are blanked on duplicate wells containing 100 μl of 100 mM K2HPO4, pH 6.5 and the plate is read at OD340 at 10 sec intervals for 5 minutes to measure any malonyl-CoA independent oxidation of NADPH. The plate is removed from the spectrophotometer and malonyl-CoA (67.4 μM, final concentration per well) and […] (61.8 μM, final concentration per well) are added to each well except to the blanks. The plate is read again as above with the kinetic protocol to measure the malonyl-CoA dependent NADPH oxidation. The difference between the Δ OD340 for the malonyl-CoA dependent and non-malonyl-CoA dependent NADPH oxidation is the specific FAS activity. Because of the purity of the FAS preparation, non-malonyl-CoA dependent NADPH oxidation is negligible.
The IC50 for the compounds against FAS is determined by plotting the Δ OD340 for each inhibitor concentration tested, performing linear regression and computing the best-fit line, r^2 values, and 95% confidence intervals. The concentration of compound yielding 50% inhibition of FAS is the IC50. […]

[5] = tested on: Raji cells; conditions: cited from earlier work
[6] = target: rat liver acyl-CoA synthetase; conditions: read-out: 50% inhibition of rat liver acyl-CoA synthetase; cited from earlier work
[7] = tested on: Mycobacterium tuberculosis; conditions: in vitro; cited from earlier work
[8] = target: viral HIV protease (Human immunodeficiency virus type 1 group M subtype B, UniProt P04585); conditions: cited from earlier work

SMILES | IC50 [1] [µg/mL] | IC50 [2] [µg/mL] | FAO MAx, concentration at maximum [3] [µg/mL] | FAO SC 150 [3] | Beta Oxidation ([3]; 0.097 ug/ml) | Beta Oxidation ([3]; 0.39 ug/ml) | Beta Oxidation ([3]; 1.56 ug/ml) | Beta Oxidation ([3]; 6.25 ug/ml) | Beta Oxidation ([3]; 25 ug/ml) | Beta Oxidation ([3]; 100 ug/ml) | FAO MAx [3] | FAS (IC50) (SB) [4] | growth inhibition in Raji cells at [5] [µM] | pIC50 [6] | activity against Mycobacterium tuberculosis [7] | inhibition of viral HIV protease at [8] [mg/mL]
CCCCCCCCC1(C)SC(=O)C(C)(C)C1=O (stereo not shown) [Compound 6, 3,3,5-Trimethyl-5-octyl-thiophene-2,4-dione] | > 80 | 23 (≈ 85 µM) | 6.25 | Neg | 100 and 86 | 110 and 93 | 110 and 102 | 121 and 141 and 130 | 57 and 52 and 53 | 19 and 29 | 141% at | Neg (SB) |  |  |  | 
CCCCCCC1(C)SC(=O)C(C)(C)C1=O (stereo not shown) [Compound 9, 3,3,5-Trimethyl-5-hexyl-thiophene-2,4-dione] | 14 (≈ 57.8 µM) | 5.3 (≈ 21.9 µM) | 6.25 | Neg | 96 | 99 | 97 | 115 | 58 | 27 | 115% | Neg (SB) |  |  |  | 
CCCC=CCC=CC=CC=NN=NO [Triacsin C, 1-hydroxy-3-(E,E,E-2′,4′,7′-undecatrienylidine) triazene] |  |  |  |  |  |  |  |  |  |  |  |  | 1.0 | 5.06 |  | 
C/C=C/C/C=C/CCC(=O)[C@H]1O[C@H]1C(N)=O [cerulenin, (2S,3R)-2,3-epoxy-4-oxo-7,10 dodecadienoyl amide] |  |  |  |  |  |  |  |  |  |  |  |  |  |  | no activity was found | 5
